Measurements from patent publication US5602100A, “Dermorphin analogs having pharmacological activity” (priority 1988, dated 1997).
Non-standard residues stand in square brackets, D forms with d. Residues, ends and D or L forms follow the SMILES beside them. dDab = NCC[C@@H](N)C(=O)O; Orn = NCCC[C@H](N)C(=O)O; Dab = NCC[C@H](N)C(=O)O

How the values were obtained:
[1] = biological target: T1, δ-opioid receptor (Rattus norvegicus, UniProt P33533); experiment: biochemical; assay type: binding
T1 construct: displacement of the radioligands from the rat brain membrane preparations; from tissue; host or cells: rat brain membrane preparations
T1 sequence (P33533 whole entry): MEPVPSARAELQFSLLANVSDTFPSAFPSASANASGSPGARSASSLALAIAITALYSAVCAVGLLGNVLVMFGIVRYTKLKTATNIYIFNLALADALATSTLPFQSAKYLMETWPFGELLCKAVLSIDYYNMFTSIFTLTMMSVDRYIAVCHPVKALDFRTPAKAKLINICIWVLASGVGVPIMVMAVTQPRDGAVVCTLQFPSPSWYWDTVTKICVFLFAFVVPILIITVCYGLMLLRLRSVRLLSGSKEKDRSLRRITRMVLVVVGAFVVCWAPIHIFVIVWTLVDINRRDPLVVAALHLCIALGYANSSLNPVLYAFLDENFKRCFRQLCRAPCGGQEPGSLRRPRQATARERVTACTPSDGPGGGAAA

[2] = test system: hot plate stimulus; experiment: Mouse hot plate test; assay type: in vivo
Procedure: The mouse hot plate test is an assay which only detects centrally-mediated analgesic effects. This test was carried out using the protocol described in G. Woolfe and A. MacDonald, J. Pharmacol. Exp. Ther., 80, p. 300 ([…]).
Since most of the peptides of the invention were not potent centrally, it was impossible to determine an ED50 value. […] A result is considered insignificant if 30% of mice or lower have responded.

[3] = test system: PBQ-induced writhing; experiment: Mouse writhing test (PBQ); assay type: in vivo; details: dose reducing the number of writhes by 50%
Procedure: The mouse writhing test detects both peripherally and centrally mediated analgesic effects. The test procedure is described in Siegmund et al., Proc. Soc. Exp. Biol. Med., 95, p. 729 (1957). In this test, a control group of albino mice was injected intraperitoneally with 0.3 ml/20 g body weight of a 0.02% solution of 2-phenyl-1,4-benzoquinone (PBQ). The writhing and contortional movements of the mice over the following 15 minutes were recorded. A second group of mice was given a dose of a synthetic dermorphin analog according to this invention, then allowed to wait a period of time before being administered the PBQ injection. The average number of writhes was then recorded and compared to the control group. The results of this test are expressed as the dosage of peptide that reduces the number of writhes by 50% at a given time interval (referred to as ED50).

[4] = biological target: T2, μ-opioid receptor (Rattus norvegicus, UniProt P33535); experiment: biochemical; assay type: binding
T2 construct: displacement of the radioligands from the rat brain membrane preparations; from tissue; host or cells: rat brain membrane preparations
T2 sequence (P33535 whole entry): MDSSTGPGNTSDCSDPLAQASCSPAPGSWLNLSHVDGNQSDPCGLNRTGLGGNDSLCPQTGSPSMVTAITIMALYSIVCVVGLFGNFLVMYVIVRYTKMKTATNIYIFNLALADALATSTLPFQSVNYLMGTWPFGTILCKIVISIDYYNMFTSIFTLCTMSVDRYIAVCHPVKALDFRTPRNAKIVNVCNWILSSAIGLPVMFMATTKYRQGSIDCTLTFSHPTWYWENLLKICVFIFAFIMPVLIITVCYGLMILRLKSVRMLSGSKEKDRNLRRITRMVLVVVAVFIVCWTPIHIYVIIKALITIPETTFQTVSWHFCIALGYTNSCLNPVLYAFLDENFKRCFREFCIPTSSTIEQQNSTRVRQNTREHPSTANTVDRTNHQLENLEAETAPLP

| Structure (SMILES) | Kd ([1]; read-out: Dissociation constant of radioligand) [nM] | % of animals showing a 50% increase ([2]; dose 40 mg/kg, time 60 min.) [%] | % of animals showing a 50% increase ([2]; dose 40 mg/kg, time 120 min.) [%] | PBQ (20 min.) ED50 [3] | Ki [4] [nM] | Ki^δ /Ki^μ [4] | Ki [1] [nM] | % of animals showing a 50% increase ([2]; dose 40 mg/kg, time 30 min.) [%] | % of animals showing a 50% increase ([2]; dose 100 mg/kg, time 60 min.) [%] |
| --- | --- | --- | --- | --- | --- | --- | --- | --- | --- |
| CC(C)C[C@H](NC(=O)[C@H](Cc1ccccc1)NC(=O)CNC(=O)[C@@H](CO)NC(=O)[C@@H](N)Cc1ccc(O)cc1)C(=O)N[C@H](C(=O)O)[C@@H](C)O [[^3 H]DSLET, reference compound] | 2.6 |  |  |  |  |  |  |  |  |
| N=C(N)NCCC[C@@H](NC(=O)[C@@H](N)Cc1ccc(O)cc1)C(=O)N[C@@H](Cc1ccccc1)C(=O)N[C@@H](CO)C(N)=O [BCH-2688, H-Tyr-D-Arg-Phe-Ser-NH2] (H-Y[dR]FS-NH2) |  | 100 |  |  |  |  |  |  |  |
| C[C@@H](NC(=O)[C@@H](N)Cc1ccc(O)cc1)C(=O)N[C@@H](Cc1ccccc1)C(=O)N[C@@H](CCN)C(N)=O [BCH-2470, H-Tyr-D-Ala-Phe-A2 bu-NH2] (H-Y[dA]F[Dab]-NH2) |  |  | 90 | 0.3 mg/kg | 5.91 | 630.58 | 3730 |  |  |
| NCC[C@H](NC(=O)[C@H](Cc1ccccc1)NC(=O)[C@@H](Cc1ccccc1)NC(=O)[C@@H](N)Cc1ccc(O)cc1)C(N)=O [BCH-2466, H-Tyr-D-Phe-Phe-A2 bu-NH2] (H-Y[dF]F[Dab]-NH2) |  | 80 |  | 0.2 mg/kg | 2.81 | 507.59 | 1420 |  |  |
| CC[C@@H](C)[C@@H](NC(=O)[C@@H](N)Cc1ccc(O)cc1)C(=O)N[C@@H](Cc1ccccc1)C(=O)N[C@@H](CCCCN)C(N)=O [BCH-2203, H-Tyr-D-Ile-Phe-Lys-NH2] (H-Y[dI]FK-NH2) |  |  | 80 | 0.8 mg/kg | 7.49 | > 338 | > 2530 |  |  |
| C[C@@H](NC(=O)[C@@H](N)Cc1ccc(O)cc1)C(=O)N[C@@H](Cc1ccccc1)C(=O)N[C@@H](CCCN)C(N)=O [BCH-2219, H-Tyr-D-Ala-Phe-Orn-NH2] (H-Y[dA]F[Orn]-NH2) |  |  |  | ~ 1 mg/Kg | 10.7 | 924.51 | 9880 | 60 |  |
| CC(C)[C@@H](NC(=O)[C@@H](N)Cc1ccc(O)cc1)C(=O)N[C@@H](Cc1ccccc1)C(=O)N[C@@H](CCCN)C(N)=O [BCH-2458, H-Tyr-D-Val-Phe-Orn-NH2] (H-Y[dV]F[Orn]-NH2) |  |  |  | 1.0 mg/kg | 13.3 | 658.27 | 8780 | 30 | 55 |
| NCCC[C@H](NC(=O)[C@H](Cc1ccccc1)NC(=O)[C@@H](CCN)NC(=O)[C@@H](N)Cc1ccc(O)cc1)C(N)=O [BCH-2580, H-Tyr-D-A2 bu-Phe-Orn-NH2] (H-Y[dDab]F[Orn]-NH2) |  | 80 |  | 1.2 mg/kg |  | 411.98 |  |  |  |
| NCCCC[C@H](NC(=O)[C@H](Cc1ccccc1)NC(=O)[C@@H](Cc1ccccc1)NC(=O)[C@@H](N)Cc1ccc(O)cc1)C(N)=O [BCH-2460, H-Tyr-D-Phe-Phe-Lys-NH2] (H-Y[dF]FK-NH2) |  |  |  | ~ 3 mg/Kg | 19 | 99.47 | 1900 |  |  |
| NCCC[C@H](NC(=O)[C@H](Cc1ccccc1)NC(=O)[C@@H](Cc1ccccc1)NC(=O)[C@@H](N)Cc1ccc(O)cc1)C(N)=O [BCH-2457, H-Tyr-D-Phe-Phe-Orn-NH2] (H-Y[dF]F[Orn]-NH2) |  | 40 |  | 1.8 mg/kg | 7.39 | 333.37 | 2460 |  |  |
| N=C(N)NCCC[C@@H](NC(=O)[C@@H](N)Cc1ccc(O)cc1)C(=O)N[C@@H](Cc1ccccc1)C(=O)N[C@@H](Cc1ccccc1)C(N)=O [BCH-2687, H-Tyr-D-Arg-Phe-Phe-NH2] (H-Y[dR]FF-NH2) |  | 70 |  |  |  |  |  |  |  |
| N=C(N)NCCC[C@H](NC(=O)[C@H](Cc1ccccc1)NC(=O)[C@@H](CCCNC(=N)N)NC(=O)[C@@H](N)Cc1ccc(O)cc1)C(N)=O [BCH-1766, H-Tyr-D-Arg-Phe-Arg-NH2] (H-Y[dR]FR-NH2) |  |  |  |  | 98.8 | 121 | 12000 |  |  |
